Here are results for 27 compounds from patent publication US6677336B2, “Substituted piperazine compounds” (CV Therapeutics, Inc., priority 2000, dated 2004).

This experiment concerns mitochondrial fatty acid oxidation (rat heart mitochondria). In words: Palmitoyl CoA oxidation in isolated rat heart mitochondria. It counts as biochemical. Conditions: 100 μM compound; 15 min at 30° C; DMSO control. The procedure: Compounds of this invention were evaluated in a rat heart mitochondiral assay as set forth below.
Rat heart mitochondria were isolated by the method of Nedergard and Cannon (methods in Enzymol. 55, 3, 1979).
Palmitoyl CoA oxidation—The Palmityl CoA oxidation was carried out in a total volume of 100 micro liters containing the following agents: 110 mM KCl, 33 mM Tris buffer at pH 8, 2 mM KPi, 2 mM MgCl2, 0.1 mM EDTA, 14.7 microM defatted BSA, 0.5 mM malic acid, 13 mM carnitine, 1 mM ADP, 52 micrograms of mitochondrial protein, and 16 microM 1-C14 palmitoyl CoA (Sp. Activity 60 mCi/mmole; 20 microCi/ml, using 5 microliters per assay). The compounds of this invention were added in a DMSO solution at the following concentrations: 100 microM, 30 microM, and 3 microM. In each assay, a DMSO control was used. After 15 min at 30° C., the enzymatic reaction was centrifuged (20,000 g for 1 min), and 70 microliters of the supernatant was added to an activated reverse phase silicic acid column (approximately 0.5 ml of silicic acid). The column was eluted with 2 ml of water, and 0.5 ml of the eluent was used for scintillation counting to determine the amount of C^14 trapped as C^14 bicarbonate ion.

With `COc1ccc(NC(=O)CN2CCN(C[C@H](O)COc3ccccc3F)[C@@H](C)C2)cc1OC` [Compound 60, 2-{(3S)-4-[(2S)-3-(2-fluorophenoxy)-2-hydroxypropyl]-3-methylpiperazinyl}-N-(3,4-dimethoxyphenyl)acetamide], the “Inhibition of mitochondrial fatty acid oxidation using palmitoyl CoA as substrate - % of Control” value (“Inhibition … - % of Control” below) worked out at 81%.

For `C[C@H]1CN(CC(=O)Nc2ccc(Cl)cc2F)CCN1C[C@H](O)COc1ccccc1F` [Compound 61, 2-{(3S)-4-[(2S)-3-(2-fluorophenoxy)-2-hydroxypropyl]-3-methylpiperazinyl}-N-(4-chloro-2-fluorophenyl)acetamide], the “Inhibition … - % of Control” value is listed as 65%.

Turning to `COc1ccc(NC(=O)CN2CCN(C[C@H](O)COc3ccccc3F)[C@@H](C)C2)c(OC)c1` [Compound 42, 2-{(3S)-4-[(2S)-3-(2-fluorophenoxy)-2-hydroxypropyl]-3-methylpiperazinyl}-N-(2,4-dimethoxyphenyl)acetamide], the “Inhibition … - % of Control” value is 68%.

For `C[C@H]1CN(CC(=O)Nc2ccc(N3CCOCC3)cc2)CCN1C[C@H](O)COc1ccccc1F` [Compound 57, 2-{(3S)-4-[(2S)-3-(2-fluorophenoxy)-2-hydroxypropyl]-3-methylpiperazinyl}-N-(4-morpholin-4-ylphenyl)acetamide], the “Inhibition … - % of Control” value was 73%.

On to `C[C@H]1CN(CC(=O)Nc2ccc(Cl)c(Cl)c2)CCN1C[C@H](O)COc1ccccc1F` [Compound 43, 2-{(3S)-4-[(2S)-3-(2-fluorophenoxy)-2-hydroxypropyl]-3-methylpiperazinyl}-N-(3,4-dichlorophenyl)acetamide], for which the “Inhibition … - % of Control” value was determined as 19%.

For `Cc1ccc(NC(=O)CN2CCN(C[C@H](O)COc3ccccc3F)[C@@H](C)C2)c(Cl)c1` [Compound 35, 2-{(3S)-4-[(2S)-3-(2-fluorophenoxy)-2-hydroxypropyl]-3-methylpiperazinyl}-N-(2-chloro-4-methylphenyl)acetamide], the “Inhibition … - % of Control” value was determined as 45%.

Turning to `C=C(C)c1ccccc1NC(=O)CN1CCN(C[C@H](O)COc2ccccc2F)[C@@H](C)C1` [Compound 36, 2-{(3S)-4-[(2S)-3-(2-fluorophenoxy)-2-hydroxypropyl]-3-methylpiperazinyl}-N-[2-(1-methylvinyl)phenyl]acetamide], the “Inhibition … - % of Control” value was found to be 61%.

Consider `C[C@H]1CN(CC(=O)Nc2ccc3c(c2)CCC3)CCN1C[C@H](O)COc1ccccc1F` [Compound 29, 2-{(3S)-4-[(2S)-3-(2-fluorophenoxy)-2-hydroxypropyl]-3-methylpiperazinyl}-N-indan-5-ylacetamide], for which the “Inhibition … - % of Control” value is reported as 51%.

As to `C[C@H]1CN(CC(=O)Nc2ccc(Cl)c3ccccc23)CCN1C[C@H](O)COc1ccccc1F` [Compound 31, 2-{(3S)-4-[(2S)-3-(2-fluorophenoxy)-2-hydroxypropyl]-3-methylpiperazinyl}-N-(4-chloronaphthyl)acetamide], the “Inhibition … - % of Control” value is 87%.

Take `COc1ccccc1NC(=O)CN1CCN(C[C@H](O)COc2ccccc2F)[C@@H](C)C1` [Compound 53, 2-{(3S)-4-[(2S)-3-(2-fluorophenoxy)-2-hydroxypropyl]-3-methylpiperazinyl}-N-(2-methoxyphenyl)acetamide]: the “Inhibition … - % of Control” value was 81%.

Turning to `COc1ccc(NC(=O)CN2CCN(C[C@H](O)COc3ccccc3F)[C@@H](C)C2)cc1` [Compound 47, 2-{(3S)-4-[(2S)-3-(2-fluorophenoxy)-2-hydroxypropyl]-3-methylpiperazinyl}-N-(4-methoxyphenyl)acetamide], the “Inhibition … - % of Control” value worked out at 80%.

`Cc1ccccc1NC(=O)CN1CCN(C[C@H](O)COc2ccccc2F)[C@@H](C)C1` [Compound 37, 2-{(3S)-4-[(2S)-3-(2-fluorophenoxy)-2-hydroxypropyl]-3-methylpiperazinyl}-N-(2-methylphenyl)acetamide]: the “Inhibition … - % of Control” value is 55%.

As to `C[C@H]1CN(CC(=O)Nc2ccc(Cl)cc2)CCN1C[C@H](O)COc1ccccc1F` [Compound 44, 2-{(3S)-4-[(2S)-3-(2-fluorophenoxy)-2-hydroxypropyl]-3-methylpiperazinyl}-N-(4-chlorophenyl)acetamide], the “Inhibition … - % of Control” value worked out at 81%.

Consider `C[C@H]1CN(CC(=O)Nc2cccc3ccccc23)CCN1C[C@H](O)COc1ccccc1F` [Compound 30, 2-{(3S)-4-[(2S)-3-(2-fluorophenoxy)-2-hydroxypropyl]-3-methylpiperazinyl}-N-naphthylacetamide], for which the “Inhibition … - % of Control” value came to 16%.

Take `C[C@H]1CN(CC(=O)Nc2ccccc2Cl)CCN1C[C@H](O)COc1ccccc1F` [Compound 34, 2-{(3S)-4-[(2S)-3-(2-fluorophenoxy)-2-hydroxypropyl]-3-methylpiperazinyl}-N-(2-chlorophenyl)acetamide]: the “Inhibition … - % of Control” value was 48%.

Consider `C[C@H]1CN(CC(=O)Nc2ccc(Cl)c(C(F)(F)F)c2)CCN1C[C@H](O)COc1ccccc1F` [Compound 55, 2-{(3S)-4-[(2S)-3-(2-fluorophenoxy)-2-hydroxypropyl]-3-methylpiperazinyl}-N-[4-chloro-3-(trifluoromethyl)phenyl]acetamide], for which the “Inhibition … - % of Control” value is reported as 11%.

With `Cc1cccc(C(C)C)c1NC(=O)CN1CCN(C[C@H](O)COc2ccccc2F)[C@@H](C)C1` [Compound 38, 2-{(3S)-4-[(2S)-3-(2-fluorophenoxy)-2-hydroxypropyl]-3-methylpiperazinyl}-N-[6-methyl-2-(methylethyl)phenyl]acetamide], the “Inhibition … - % of Control” value is 78%.

With `C[C@H]1CN(CC(=O)Nc2ccc(C#N)cc2)CCN1C[C@H](O)COc1ccccc1F` [Compound 51, 2-{(3S)-4-[(2S)-3-(2-fluorophenoxy)-2-hydroxypropyl]-3-methylpiperazinyl}-N-(4-cyanophenyl)acetamide], the “Inhibition … - % of Control” value was determined as 99%.

As to `Cc1cccc(NC(=O)CN2CCN(C[C@H](O)COc3ccccc3F)[C@@H](C)C2)c1` [Compound 49, 2-{(3S)-4-[(2S)-3-(2-fluorophenoxy)-2-hydroxypropyl]-3-methylpiperazinyl}-N-(3-methylphenyl)acetamide], the “Inhibition … - % of Control” value was 66%.

Take `CSc1cccc(NC(=O)CN2CCN(C[C@H](O)COc3ccccc3F)[C@@H](C)C2)c1` [Compound 39, 2-{(3S)-4-[(2S)-3-(2-fluorophenoxy)-2-hydroxypropyl]-3-methylpiperazinyl}-N-(3-methylthiophenyl)acetamide]: the “Inhibition … - % of Control” value was 60%.

Turning to `C[C@H]1CN(CC(=O)Nc2ccccc2)CCN1C[C@H](O)COc1ccccc1F` [Compound 33, 2-{(3S)-4-[(2S)-3-(2-fluorophenoxy)-2-hydroxypropyl]-3-methylpiperazinyl}-N-phenylacetamide], the “Inhibition … - % of Control” value was 63%.

For the compound `Cc1cccc(C)c1NC(=O)CN1CCN(CC(O)CCOc2ccc(F)cc2)CC1` (stereo not drawn) [Compound 21, N-(2,6-dimethylphenyl)-2-{4-[4-(4-fluorophenoxy)-2-hydroxybutyl]-piperazinyl}acetamide], the “Inhibition … - % of Control” value stood at 87%.

In the case of `C[C@H]1CN(CC(=O)Nc2ccc(N(C)C)cc2)CCN1C[C@H](O)COc1ccccc1F` [Compound 41, 2-{(3S)-4-[(2S)-3-(2-fluorophenoxy)-2-hydroxypropyl]-3-methylpiperazinyl}-N-[4-(dimethylamino)phenyl]acetamide], the “Inhibition … - % of Control” value stood at 64%.

On to `C[C@H]1CN(CC(=O)Nc2cccc(Cl)c2)CCN1C[C@H](O)COc1ccccc1F` [Compound 45, 2-{(3S)-4-[(2S)-3-(2-fluorophenoxy)-2-hydroxypropyl]-3-methylpiperazinyl}-N-(3-chlorophenyl)acetamide], for which the “Inhibition … - % of Control” value was 58%.

On to `COc1cc(NC(=O)CN2CCN(C[C@H](O)COc3ccccc3F)[C@@H](C)C2)cc(C(F)(F)F)c1` [Compound 28, 2-{(3S)-4-[(2S)-3-(2-fluorophenoxy)-2-hydroxypropyl]-3-methylpiperazinyl}-N-(5-methoxy-3-(trifluoromethyl)phenyl]acetamide], for which the “Inhibition … - % of Control” value worked out at 59%.

For the compound `COc1cc(NC(=O)CN2CCN(C[C@H](O)COc3ccccc3F)[C@@H](C)C2)cc(OC)c1` [Compound 56, 2-{(3S)-4-[(2S)-3-(2-fluorophenoxy)-2-hydroxypropyl]-3-methylpiperazinyl}-N-(3,5-dimethoxyphenyl)acetamide], the “Inhibition … - % of Control” value is recorded as 83%.

For `C[C@H]1CN(CC(=O)Nc2ccc(C(F)(F)F)cc2)CCN1C[C@H](O)COc1ccccc1F` [Compound 54, 2-{(3S)-4-[(2S)-3-(2-fluorophenoxy)-2-hydroxypropyl]-3-methylpiperazinyl}-N-[4-(trifluoromethyl)phenyl]acetamide], the “Inhibition … - % of Control” value is recorded as 75%.
